Experimental data published in paper PMC8713164, “Development of a 1,2,4-Triazole-Based Lead Tankyrase Inhibitor: Part II” (Journal of Medicinal Chemistry, 2021).
Read-outs that look alike come from different tables or passages of the source.

Key:
[1] = in vitro; format: in vitro ADME; conditions: human, Caco-2
Description: (§1) Kinetic solubility, microsomal stability, and plasma stability were determined following our internal protocol (Symeres). The Caco-2 and PPB determinations were performed by Cyprotex.

[2] = test system: COLO 320DM cells; assay: Western blot of cytoplasmic and nuclear lysates of treated COLO 320DM cells; format: cell-based, human
Description: (§2) After 5 days, the antiproliferative effect of compound treatment was measured at 490 nm. Mean value ± standard deviation (SD) for one representative experiment of more than three repeated assays, each with six replicates, are shown. […] (b) Representative immunoblots of cytoplasmic TNKS1/2, AXIN1, AXIN2, and cytoplasmic and nuclear transcriptionally active β-catenin (non-phospho) and β-catenin. […] For (b) and (c), control = 0.001% DMSO. (c) Real-time RT-qPCR analyses of WNT/β-catenin signaling target genes (AXIN2, DKK1, NKD1, and APCDD1). Boxplots show median, first and third quartiles, and maximum and minimum whiskers for combined data from three independent experiments with three replicates each. Dotted lines depict the control mean value = 1. For (a) and (c), analysis of variance (ANOVA) tests (Holm–Sidak method, versus control) are indicated by *** (p < 0.001) and * (p < 0.05), while ANOVA on ranks tests (Dunn’s method, versus control) are indicated by ^† (p < 0.05).
Western blot analysis of nuclear and cytoplasmic lysates from compound-treated COLO 320DM cells was performed as previously described.[39],[50]

[3] = molecular target: T1, PARP1 (Homo sapiens, UniProt P09874); assay: PARP1 biochemical assay; conditions: > under 50% inhibition
T1 construct: made in house
Description: (§3) All reactions were performed at ambient temperature.
(§4) The assay conditions for the other PARP enzymes were used as previously described.[39]

[4] = molecular target: T2, TNKS2 (Homo sapiens, UniProt Q9H2K2); assay: TNKS2 biochemical assay (unreacted NAD+ fluorescence)
T2 construct: TNKS2 (residues 873–1162); made in house
T2 sequence (Q9H2K2 873-1162): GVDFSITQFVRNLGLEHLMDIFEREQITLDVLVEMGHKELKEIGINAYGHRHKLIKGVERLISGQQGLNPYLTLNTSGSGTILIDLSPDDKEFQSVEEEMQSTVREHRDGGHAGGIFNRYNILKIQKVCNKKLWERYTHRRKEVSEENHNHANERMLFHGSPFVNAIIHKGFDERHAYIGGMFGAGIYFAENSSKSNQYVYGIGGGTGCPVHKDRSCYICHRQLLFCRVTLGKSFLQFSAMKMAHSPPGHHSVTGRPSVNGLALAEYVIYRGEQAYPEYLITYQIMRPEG
Description: New compounds were prepared in half-log dilution series, and the reactions were carried out in quadruplicates with protein and compound controls to exclude the effect of compound autofluorescence. All reactions were performed at ambient temperature. TNKS1 (20 nM) or TNKS2 (5 nM) was incubated for 20 h in assay buffer (50 mM Bis-Tris propane (BTP), pH 7.0, 0.5 mM Tris(2-carboxyethyl)phosphine (TCEP), 0.01% Triton X-100) with compound and 10 μM or 500 nM NAD^+, respectively.

[5] = mouse peroral pharmacokinetic analysis; format: in vivo; conditions: mouse PO 5 mg/kg
Description: The pharmacokinetic analyses in mice were performed according to the standard protocols of Medicilon as previously described[21] following approval by local animal experiment authorities (Shanghai, China) and in compliance with FELASA guidelines and recommendations. Three IRC mice were used per treatment group: 5 mg/kg 24 in 5% DMSO, 50% PEG400 (both Sigma-Aldrich), and 45% saline as vehicle.

[6] = molecular target: T3, human PXR (Homo sapiens, UniProt O75469); assay: PXR assay (CYP induction); format: in vitro ADME; conditions: highest concentration, 100 μM
T3 construct: Admescope, contract assay
T3 sequence (O75469 whole entry): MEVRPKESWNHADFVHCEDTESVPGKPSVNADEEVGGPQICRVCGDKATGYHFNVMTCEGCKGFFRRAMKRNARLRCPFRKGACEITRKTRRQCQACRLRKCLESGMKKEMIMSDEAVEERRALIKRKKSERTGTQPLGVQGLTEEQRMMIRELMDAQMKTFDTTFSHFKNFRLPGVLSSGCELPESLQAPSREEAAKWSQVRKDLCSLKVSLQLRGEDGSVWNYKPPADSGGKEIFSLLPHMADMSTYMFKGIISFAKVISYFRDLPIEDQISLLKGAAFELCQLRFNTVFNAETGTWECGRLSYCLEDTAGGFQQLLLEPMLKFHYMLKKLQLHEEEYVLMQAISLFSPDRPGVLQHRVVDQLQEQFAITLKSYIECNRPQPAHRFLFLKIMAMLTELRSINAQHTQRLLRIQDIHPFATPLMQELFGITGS
Description: (§5) A safety panel (Cerep) of 44 selected targets (n = 2) including hERG Inhibition using 10 μM 24 was performed by Eurofins. Ames and CYP3A4 inhibition assays were performed by Cyprotex, and the PXR assay (CYP induction) was performed at Admescope. The PARP assays are described below.

[7] = molecular target: PARP1/2/3/4/10/12/14/15; assay: PARP enzyme panel, summary line of Table 5; format: biochemical; conditions: one bound for all eight PARPs
Description: as §3, §4

[8] = test system: WNT/β-catenin signaling; assay: cellular (HEK293) WNT/β-catenin signaling luciferase reporter assay; format: cell-based, human; conditions: for IC50: Homo sapiens
[9] = test system: RKO cells; assay: MTS colorimetric cell growth assay, RKO; format: cell-based, human
Description: as §2
Antiproliferative assays using colon cancer cell lines COLO 320DM and RKO were performed as previously described.[39]

[10] = molecular target: T4, PARP4 (Homo sapiens, UniProt Q9UKK3); assay: PARP4 biochemical assay; conditions: > under 50% inhibition
T4 construct: made in house
T4 sequence (Q9UKK3 whole entry): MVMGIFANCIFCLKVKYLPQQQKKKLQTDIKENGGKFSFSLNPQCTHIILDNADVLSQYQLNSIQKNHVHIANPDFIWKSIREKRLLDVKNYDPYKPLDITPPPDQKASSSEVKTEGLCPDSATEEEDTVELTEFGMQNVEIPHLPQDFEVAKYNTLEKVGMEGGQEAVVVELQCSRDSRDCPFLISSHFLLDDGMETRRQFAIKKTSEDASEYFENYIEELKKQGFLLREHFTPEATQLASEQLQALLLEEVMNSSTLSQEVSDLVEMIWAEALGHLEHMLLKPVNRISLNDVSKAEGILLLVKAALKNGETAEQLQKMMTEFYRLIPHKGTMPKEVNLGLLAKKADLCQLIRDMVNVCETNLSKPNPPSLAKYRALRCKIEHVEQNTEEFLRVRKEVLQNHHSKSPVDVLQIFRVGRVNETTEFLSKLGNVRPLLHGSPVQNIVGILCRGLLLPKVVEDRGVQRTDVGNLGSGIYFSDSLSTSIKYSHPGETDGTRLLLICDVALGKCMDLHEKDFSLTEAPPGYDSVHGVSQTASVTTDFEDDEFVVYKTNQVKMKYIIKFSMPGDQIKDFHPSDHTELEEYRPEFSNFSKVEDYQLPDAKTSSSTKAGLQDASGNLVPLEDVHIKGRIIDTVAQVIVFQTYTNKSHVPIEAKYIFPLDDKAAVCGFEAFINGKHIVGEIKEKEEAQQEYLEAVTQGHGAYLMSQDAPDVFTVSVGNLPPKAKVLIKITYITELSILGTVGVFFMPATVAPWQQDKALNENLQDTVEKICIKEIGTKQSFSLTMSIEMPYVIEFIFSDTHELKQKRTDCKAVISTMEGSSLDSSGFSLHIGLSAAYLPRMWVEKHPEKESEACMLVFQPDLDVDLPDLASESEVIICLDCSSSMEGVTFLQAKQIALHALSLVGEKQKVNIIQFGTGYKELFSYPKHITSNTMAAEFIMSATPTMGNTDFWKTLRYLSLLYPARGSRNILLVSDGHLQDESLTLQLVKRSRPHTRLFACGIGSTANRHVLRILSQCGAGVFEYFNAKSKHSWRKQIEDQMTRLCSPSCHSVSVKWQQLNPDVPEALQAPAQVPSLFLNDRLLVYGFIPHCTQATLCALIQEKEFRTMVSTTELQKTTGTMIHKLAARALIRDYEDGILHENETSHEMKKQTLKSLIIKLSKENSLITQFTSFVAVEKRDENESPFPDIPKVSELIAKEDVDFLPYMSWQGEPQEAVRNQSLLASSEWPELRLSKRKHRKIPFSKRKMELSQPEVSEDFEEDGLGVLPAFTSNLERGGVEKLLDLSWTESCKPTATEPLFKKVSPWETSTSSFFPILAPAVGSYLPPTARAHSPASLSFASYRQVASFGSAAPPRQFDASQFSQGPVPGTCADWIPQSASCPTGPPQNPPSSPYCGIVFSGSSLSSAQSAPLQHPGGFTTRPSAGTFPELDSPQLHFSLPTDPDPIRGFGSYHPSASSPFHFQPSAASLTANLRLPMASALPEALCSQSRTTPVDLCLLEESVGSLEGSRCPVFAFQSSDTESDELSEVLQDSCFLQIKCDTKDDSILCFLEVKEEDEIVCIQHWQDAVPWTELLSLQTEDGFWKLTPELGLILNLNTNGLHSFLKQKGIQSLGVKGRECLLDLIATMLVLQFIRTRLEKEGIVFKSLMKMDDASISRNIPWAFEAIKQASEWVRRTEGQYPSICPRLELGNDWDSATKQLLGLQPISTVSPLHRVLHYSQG
Description: as §3, §4

[11] = test system: Cerep Safety panel 44 targets; assay: Cerep safety panel of 44 selected targets; conditions: 10 μM
Description: as §5

[12] = molecular target: T5, TNKS1 (Homo sapiens, UniProt O95271); assay: TNKS1 biochemical assay (unreacted NAD+ fluorescence); conditions: TNKS1 20 nM, 10 μM NAD+, 20 h
T5 construct: TNKS1 (residues 1030–1317); made in house
T5 sequence (O95271 1030-1317): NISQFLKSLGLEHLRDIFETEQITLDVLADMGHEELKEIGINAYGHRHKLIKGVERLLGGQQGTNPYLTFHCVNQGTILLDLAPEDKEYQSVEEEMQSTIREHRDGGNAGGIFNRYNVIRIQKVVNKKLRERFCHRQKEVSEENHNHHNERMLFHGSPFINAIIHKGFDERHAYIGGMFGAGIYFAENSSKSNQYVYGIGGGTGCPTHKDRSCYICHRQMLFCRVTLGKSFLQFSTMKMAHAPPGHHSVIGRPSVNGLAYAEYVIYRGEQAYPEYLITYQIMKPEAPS

[13] = molecular target: T6, PARP2 (Homo sapiens, UniProt Q9UGN5); assay: PARP2 biochemical assay; conditions: > under 50% inhibition
T6 construct: made in house
T6 sequence (Q9UGN5 whole entry): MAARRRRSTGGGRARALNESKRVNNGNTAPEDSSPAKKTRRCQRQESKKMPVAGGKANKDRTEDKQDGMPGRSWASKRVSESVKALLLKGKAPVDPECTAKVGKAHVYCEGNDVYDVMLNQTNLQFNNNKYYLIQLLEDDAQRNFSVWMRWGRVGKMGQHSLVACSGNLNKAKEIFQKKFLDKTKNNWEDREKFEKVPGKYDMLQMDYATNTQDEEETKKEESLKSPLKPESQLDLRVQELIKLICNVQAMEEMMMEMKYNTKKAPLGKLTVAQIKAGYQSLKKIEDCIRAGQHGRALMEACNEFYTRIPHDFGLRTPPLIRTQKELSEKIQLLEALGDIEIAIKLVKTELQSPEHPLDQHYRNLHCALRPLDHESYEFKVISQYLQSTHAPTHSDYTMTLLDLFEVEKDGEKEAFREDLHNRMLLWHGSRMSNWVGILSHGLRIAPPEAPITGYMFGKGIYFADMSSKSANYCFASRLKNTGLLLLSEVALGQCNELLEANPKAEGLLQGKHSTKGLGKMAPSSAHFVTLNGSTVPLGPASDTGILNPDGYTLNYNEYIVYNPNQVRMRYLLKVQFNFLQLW
Description: as §3, §4

[14] = molecular target: T7, PARP12 (Homo sapiens, UniProt Q9H0J9); assay: PARP12 biochemical assay; conditions: >>: no inhibition detected; concentration limited by DMSO tolerance
T7 construct: made in house
T7 sequence (Q9H0J9 whole entry): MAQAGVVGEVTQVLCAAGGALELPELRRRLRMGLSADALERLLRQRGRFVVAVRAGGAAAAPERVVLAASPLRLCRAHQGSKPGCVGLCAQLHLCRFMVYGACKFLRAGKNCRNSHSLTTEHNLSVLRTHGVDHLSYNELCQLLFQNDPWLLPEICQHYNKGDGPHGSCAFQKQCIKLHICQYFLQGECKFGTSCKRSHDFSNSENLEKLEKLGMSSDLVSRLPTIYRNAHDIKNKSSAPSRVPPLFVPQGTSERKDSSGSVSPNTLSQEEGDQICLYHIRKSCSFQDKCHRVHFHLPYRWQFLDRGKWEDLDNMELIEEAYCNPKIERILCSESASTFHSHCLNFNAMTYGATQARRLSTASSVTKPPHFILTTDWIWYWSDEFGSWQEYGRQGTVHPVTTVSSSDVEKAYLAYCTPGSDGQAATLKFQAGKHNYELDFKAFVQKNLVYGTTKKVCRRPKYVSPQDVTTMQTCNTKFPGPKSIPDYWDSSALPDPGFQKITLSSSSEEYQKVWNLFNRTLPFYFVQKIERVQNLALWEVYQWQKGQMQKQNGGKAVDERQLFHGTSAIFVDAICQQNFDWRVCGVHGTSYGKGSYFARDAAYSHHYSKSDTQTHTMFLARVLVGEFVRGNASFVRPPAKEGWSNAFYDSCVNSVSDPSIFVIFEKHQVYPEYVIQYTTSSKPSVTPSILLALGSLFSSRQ
Description: as §3, §4

[15] = Ames test
Description: as §5

[16] = molecular target: T8, PARP15 (Homo sapiens, UniProt Q460N3); assay: PARP15 biochemical assay; conditions: >>: no inhibition detected; concentration limited by DMSO tolerance
T8 construct: made in house
T8 sequence (Q460N3 whole entry): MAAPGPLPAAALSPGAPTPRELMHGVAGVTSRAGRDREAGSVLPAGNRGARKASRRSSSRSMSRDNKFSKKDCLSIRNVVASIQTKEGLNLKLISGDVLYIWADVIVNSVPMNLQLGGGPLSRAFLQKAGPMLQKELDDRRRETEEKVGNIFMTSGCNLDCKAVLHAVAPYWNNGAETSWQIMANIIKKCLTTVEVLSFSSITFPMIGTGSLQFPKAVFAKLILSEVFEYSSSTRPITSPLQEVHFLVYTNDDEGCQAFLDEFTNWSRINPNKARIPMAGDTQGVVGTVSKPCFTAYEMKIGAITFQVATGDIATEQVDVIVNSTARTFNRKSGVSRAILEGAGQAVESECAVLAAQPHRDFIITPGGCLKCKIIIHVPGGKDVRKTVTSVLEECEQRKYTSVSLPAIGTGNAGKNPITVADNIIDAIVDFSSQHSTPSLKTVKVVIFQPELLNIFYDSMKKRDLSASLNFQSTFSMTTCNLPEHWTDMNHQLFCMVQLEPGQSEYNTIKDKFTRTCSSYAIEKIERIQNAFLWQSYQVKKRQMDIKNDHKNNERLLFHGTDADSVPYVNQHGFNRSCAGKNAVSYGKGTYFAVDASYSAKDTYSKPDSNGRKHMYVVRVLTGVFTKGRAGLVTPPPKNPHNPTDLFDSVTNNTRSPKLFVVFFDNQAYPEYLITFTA
Description: as §3, §4

[17] = molecular target: T9, PARP14 (Homo sapiens, UniProt Q460N5); assay: PARP14 biochemical assay; conditions: > under 50% inhibition
T9 construct: made in house
Description: as §3, §4

[18] = test system: COLO 320DM cells; assay: real-time qRT-PCR of WNT/β-catenin target genes in COLO 320DM cells; format: cell-based, human; conditions: dose-dependent
Description: as §2

[19] = mouse plasma stability; format: in vitro ADME; conditions: read-out: mouse plasma stability t1/2
Description: as §1

SMILES: CCOc1ccc(-c2nnc([C@H]3C[C@H](NC(=O)c4cccc5nccnc45)C3)n2-c2ccccc2F)nc1 [Compound 24, N-(trans-3-(5-(5-Ethoxypyridin-2-yl)-4-(2-fluorophenyl)-4H-1,2,4-triazol-3-yl)cyclobutyl)quinoxaline-5-carboxamide]
- Papp A→B at 2 h, 10 µM [1]: 40.5 ×10⁻⁶ cm/s
- efflux ratio [1]: 0.64
- level of transcriptionally active β-catenin (nonphosphorylated) ([2]; cytoplasmic and nuclear fractions): reduced
- TNKS1/2 protein levels ([2]; dose-dependent, immunoblot): either increased or decreased
- AXIN1 and AXIN2 protein levels ([2]; immunoblot): stabilized
- IC50 [3]: > 100000 nM
- IC50 ([4]; IC50 TNKS2): 1.8 nM
- IC50 ([4]; IC50 TNKS2, TNKS2 5 nM, 500 nM NAD+, 20 h, quadruplicates, 95% confidence intervals in parentheses, 24: averages of multiple independent measurements): 1.6 nM
- TNKS2 pIC50 ± SEM ([4]; TNKS2 5 nM, 500 nM NAD+, 20 h): 2.0 (8.71 ± 0.069)
- IC50 ([4]; TNKS2 pIC50 ± SEM, TNKS2 5 nM, 500 nM NAD+, 20 h): 1.62 nM
- IC50 ([4]; read-out: IC50 TNKS2): 2 nM
- AUC(0-inf) at 24 h ([5]; IRC, in vivo): 5040 ng·h/mL
- AUC(0-t) ([5]; IRC, in vivo): 4940 ng·h/mL
- Cmax at 24 h ([5]; IRC, in vivo): 1970 ng/mL
- Tmax at 24 h ([5]; IRC, in vivo): 0.5 h
- half-life at 24 h ([5]; IRC, in vivo): 1.5 h
- MRT inf at 24 h ([5]; IRC, in vivo, read-out: MRT 0 → ∞): 2.39 h
- CL [5]: 16.5 mL/min/kg
- Vd [5]: 2.15 L/kg
- peak value (Cmax) relative to that of 1 [5]: about 60%
- CYP induction (human PXR) [6]: nonactivator ^b ^c
- IC50 [7]: > 10000 nM
- IC50 ([8]; HEK293, read-out: HEK293 reporter assay pIC50 ± SEM (converted)): 0.603 nM
- IC50 ([8]; HEK293, read-out: IC50 HEK293, HEK293 WNT/β-catenin signaling reporter assay, triplicates, 24: averages of multiple independent measurements): 0.63 nM
- efficacy in the cellular WNT/β-catenin signaling reporter assay relative to 1 ([8]; times higher than 1): approximately 30 times
- effect of treatment on RKO cell viability ([9]; APC wild-type control colon cancer line): only modestly affected
- GI50 ([9]; Homo sapiens, RKO, 120 h, read-out: RKO cells GI50): > 10000 nM
- IC50 [10]: > 100000 nM
- Cerep Safety panel 44 targets (overall result) [11]: clean
- Cerep Safety panel 44 targets inhibition, all targets ([11]; n = 2): < 50%
- IC50 [12]: 13 nM
- TNKS1 pIC50 ± SEM [12]: 7.90 ± 0.054
- IC50 [13]: > 100000 nM
- IC50 [14]: > 10000 nM
- Ames test [15]: nongenotoxic
- IC50 [16]: > 10000 nM
- IC50 [17]: > 100000 nM
- transcripts of WNT/β-catenin target genes AXIN2, DKK1, NKD1, APCDD1 [18]: reduced levels
- half-life [19]: > 2 h
